Measured values published in patent US10508085B2, “Compounds and methods for IDO and TDO modulation, and indications therefor” (Plexxikon Inc., priority 2016, dated 2019).

Key:
[1] = target: T1, human TDO (TDO-expressing HEK293 cells) (Homo sapiens, UniProt P48775); assay: Cell based kynurenine assay, TDO-expressing HEK293 cell clones; conditions: TDO-expressing HEK293 cells, 24 hours, geometric mean; read-out: HEK293 TDO Kynurenine GMean IC50 (μM) (Cellular Assay)
T1 construct: expressed in transfected cells
Procedure, shortened: (§1)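 Kynurenine in culture supernatant read after 24 h compound exposure of HEK293 cells stably expressing human IDO1 or TDO. IC50 from nonlinear regression of % inhibition relative to 0.2% DMSO cell (high) and media-only (low) controls.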

[2] = target: T2, Human Indoleamine 2,3-dioxygenase (IDO) (Homo sapiens, UniProt P14902); assay: Human IDO enzymatic assay (kynurenine level); type: biochemical; conditions: 6 nM IDO, 10 μM L-Trp; geometric mean; read-out: IDO1 GMean: IC50 (μM) (Biochemical Assay)
T2 construct: His tag (N); made in house; host or cells: E. coli
Procedure, shortened: (§2)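 Reactions were stopped with TCA, converting N-formylkynurenine to kynurenine for quantitation, with IC50 by nonlinear regression. IDO: 6 nM enzyme, 10 μM L-Trp, 20 min RT. TDO: 1 nM enzyme, 350 μM L-Trp, 70 min RT, both in pH 6.5 buffer.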

[3] = target: T3, human IDO (IDO1-expressing HEK293 cells) (Homo sapiens, UniProt P14902); assay: Cell based kynurenine assay, IDO1-expressing HEK293 cell clones; conditions: IDO1-expressing HEK293 cells, 24 hours, geometric mean; read-out: HEK293 IDO1 Kynurenine GMean IC50 (μM) (Cellular Assay)
T3 construct: expressed in transfected cells
Procedure, shortened: as §1

[4] = target: T4, Human Tryptophan 2,3-dioxygenase (TDO) (Homo sapiens, UniProt P48775); assay: Human TDO enzymatic assay (kynurenine level); type: biochemical; conditions: 1 nM TDO, 350 μM L-Trp; geometric mean; read-out: TDO GMean: IC50 (μM) (Biochemical Assay)
T4 construct: His tag (N); made in house; host or cells: E. coli
Procedure, shortened: as §2

T2 sequence (P14902 whole entry): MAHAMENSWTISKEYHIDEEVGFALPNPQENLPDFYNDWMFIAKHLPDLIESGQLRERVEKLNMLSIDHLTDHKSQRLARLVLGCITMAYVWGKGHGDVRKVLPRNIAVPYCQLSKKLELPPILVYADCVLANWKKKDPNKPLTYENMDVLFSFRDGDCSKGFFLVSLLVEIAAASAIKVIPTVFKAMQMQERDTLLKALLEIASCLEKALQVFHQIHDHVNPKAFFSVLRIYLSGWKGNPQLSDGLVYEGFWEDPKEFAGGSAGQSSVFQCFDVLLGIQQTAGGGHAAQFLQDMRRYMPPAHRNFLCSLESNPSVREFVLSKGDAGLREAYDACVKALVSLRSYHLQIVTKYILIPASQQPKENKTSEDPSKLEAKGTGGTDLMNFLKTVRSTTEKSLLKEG
T3 sequence (P14902 whole entry): as above
T1 sequence (P48775 whole entry): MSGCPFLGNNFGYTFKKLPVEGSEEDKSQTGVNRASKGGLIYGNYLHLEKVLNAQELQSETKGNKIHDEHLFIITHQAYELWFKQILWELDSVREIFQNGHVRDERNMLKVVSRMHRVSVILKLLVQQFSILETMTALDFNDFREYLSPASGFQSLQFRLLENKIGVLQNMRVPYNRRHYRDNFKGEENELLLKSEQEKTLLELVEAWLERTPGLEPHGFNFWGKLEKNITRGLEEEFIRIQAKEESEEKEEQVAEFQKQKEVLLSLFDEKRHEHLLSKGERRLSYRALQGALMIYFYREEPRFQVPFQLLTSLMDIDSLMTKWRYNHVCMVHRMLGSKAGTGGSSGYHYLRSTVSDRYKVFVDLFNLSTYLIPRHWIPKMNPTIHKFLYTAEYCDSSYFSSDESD
T4 sequence (P48775 whole entry): as above

IC50 [1] | IC50 [2] | IC50 [3] | IC50 [4] | SMILES
0.0001 to 10 µM | 0.0001 to 10 µM | 0.0001 to 10 µM | 0.0001 to 10 µM | CC(C)(C1CCN(C(=O)CO)CC1)C(O)c1cc(Cl)cc2cn[nH]c12 (centres unmarked) [Compound P-0461, 1-(4-(1-(5-chloro-1H-indazol-7-yl)-1-hydroxy-2-methylpropan-2-yl)piperidin-1-yl)-2-hydroxyethan-1-one]
0.0001 to 10 µM | 0.0001 to 10 µM | 0.0001 to 10 µM | 0.0001 to 10 µM | O=C(NC1CCOCC1)N1CCC(C(F)(F)C(O)c2cc(Cl)cc3cn[nH]c23)CC1 (centres unmarked) [Compound P-0462, 4-(2-(5-chloro-1H-indazol-7-yl)-1,1-difluoro-2-hydroxyethyl)-N-(tetrahydro-2H-pyran-4-yl)piperidine-1-carboxamide]
> 10 µM | 0.0001 to 10 µM | 0.0001 to 10 µM | 0.0001 to 10 µM | O=C(NC1CCS(=O)(=O)CC1)N1CCC(C(F)(F)C(O)c2cc(Cl)cc3cn[nH]c23)CC1 (centres unmarked) [Compound P-0463, 4-(2-(5-chloro-1H-indazol-7-yl)-1,1-difluoro-2-hydroxyethyl)-N-(1,1-dioxidotetrahydro-2H-thiopyran-4-yl)piperidine-1-carboxamide]
0.0001 to 10 µM | 0.0001 to 10 µM | 0.0001 to 10 µM | 0.0001 to 10 µM | O=C(NC1COC1)N1CCC(C(F)(F)C(O)c2cc(Cl)cc3cn[nH]c23)CC1 (centres unmarked) [Compound P-0464, 4-(2-(5-chloro-1H-indazol-7-yl)-1,1-difluoro-2-hydroxyethyl)-N-(oxetan-3-yl)piperidine-1-carboxamide]
0.0001 to 10 µM | 0.0001 to 10 µM | 0.0001 to 10 µM | 0.0001 to 10 µM | O=C(NCC1(O)CC1)N1CCC(C(F)(F)C(O)c2cc(Cl)cc3cn[nH]c23)CC1 (centres unmarked) [Compound P-0465, 4-(2-(5-chloro-1H-indazol-7-yl)-1,1-difluoro-2-hydroxyethyl)-N-((1-hydroxycyclopropyl)methyl)piperidine-1-carboxamide]
0.0001 to 10 µM | 0.0001 to 10 µM | 0.0001 to 10 µM | 0.0001 to 10 µM | CC(C)(O)CNC(=O)N1CCC(C(F)(F)C(O)c2cc(Cl)cc3cn[nH]c23)CC1 (centres unmarked) [Compound P-0466, 4-(2-(5-chloro-1H-indazol-7-yl)-1,1-difluoro-2-hydroxyethyl)-N-(2-hydroxy-2-methylpropyl) piperidine-1-carboxamide]
> 10 µM | 0.0001 to 10 µM | 0.0001 to 10 µM | 0.0001 to 10 µM | O=C(NCC1CCS(=O)(=O)CC1)N1CCC(C(F)(F)C(O)c2cc(Cl)cc3cn[nH]c23)CC1 (centres unmarked) [Compound P-0467, 4-(2-(5-chloro-1H-indazol-7-yl)-1,1-difluoro-2-hydroxyethyl)-N-((1,1-dioxidotetrahydro-2H-thiopyran-4-yl)methyl)piperidine-1-carboxamide]
0.0001 to 10 µM | 0.0001 to 10 µM | 0.0001 to 10 µM | 0.0001 to 10 µM | O=C(NCC1CCOCC1)N1CCC(C(F)(F)C(O)c2cc(Cl)cc3cn[nH]c23)CC1 (centres unmarked) [Compound P-0468, 4-(2-(5-chloro-1H-indazol-7-yl)-1,1-difluoro-2-hydroxyethyl)-N-((tetrahydro-2H-pyran-4-yl)methyl)piperidine-1-carboxamide]
0.0001 to 10 µM | 0.0001 to 10 µM | 0.0001 to 10 µM | 0.0001 to 10 µM | CC(C)(C)OC(=O)N1CCC(C(F)(F)C(O)c2cc(Cl)cc3cn[nH]c23)CC1 (centres unmarked) [Compound P-0469, tert-butyl 4-(2-(5-chloro-1H-indazol-7-yl)-1,1-difluoro-2-hydroxyethyl) piperidine-1-carboxylate]
0.0001 to 10 µM | 0.0001 to 10 µM | 0.0001 to 10 µM | 0.0001 to 10 µM | CC(C)(C1CCN(C(=O)Nc2cccs2)CC1)C(O)c1cc(Cl)cc2cn[nH]c12 (centres unmarked) [Compound P-0470, 4-(1-(5-chloro-1H-indazol-7-yl)-1-hydroxy-2-methylpropan-2-yl)-N-(thiophen-2-yl)piperidine-1-carboxamide]
0.0001 to 10 µM | 0.0001 to 10 µM | 0.0001 to 10 µM | 0.0001 to 10 µM | CC(C)(C1CCN(C(=O)NCS(C)(=O)=O)CC1)C(O)c1cc(Cl)cc2cn[nH]c12 (centres unmarked) [Compound P-0471, 4-(1-(5-chloro-1H-indazol-7-yl)-1-hydroxy-2-methylpropan-2-yl)-N-((methylsulfonyl)methyl)piperidine-1-carboxamide]
0.0001 to 10 µM | 0.0001 to 10 µM | 0.0001 to 10 µM | 0.0001 to 10 µM | CC(C)(C1CCN(C(=O)NCCC(F)(F)F)CC1)C(O)c1cc(Cl)cc2cn[nH]c12 (centres unmarked) [Compound P-0472, 4-(1-(5-chloro-1H-indazol-7-yl)-1-hydroxy-2-methylpropan-2-yl)-N-(3,3,3-trifluoropropyl) piperidine-1-carboxamide]
0.0001 to 10 µM | 0.0001 to 10 µM | 0.0001 to 10 µM | 0.0001 to 10 µM | CC(C)(C1CCN(C(=O)NCC2CC2)CC1)C(O)c1cc(Cl)cc2cn[nH]c12 (centres unmarked) [Compound P-0473, 4-(1-(5-chloro-1H-indazol-7-yl)-1-hydroxy-2-methylpropan-2-yl)-N-(cyclopropylmethyl) piperidine-1-carboxamide]
0.0001 to 10 µM | 0.0001 to 10 µM | 0.0001 to 10 µM | 0.0001 to 10 µM | CC(C)(C1CCN(C(=O)C2C(C)(C)C2(C)C)CC1)C(O)c1cc(Cl)cc2cn[nH]c12 (centres unmarked) [Compound P-0474, (4-(1-(5-chloro-1H-indazol-7-yl)-1-hydroxy-2-methylpropan-2-yl)piperidin-1-yl)(2,2,3,3-tetramethylcyclopropyl) methanone]
0.0001 to 10 µM | 0.0001 to 10 µM | 0.0001 to 10 µM | 0.0001 to 10 µM | CC(C)(O)CNC(=O)N1CCC(C(C)(C)C(O)c2cc(Cl)cc3cn[nH]c23)CC1 (centres unmarked) [Compound P-0475, 4-(1-(5-chloro-1H-indazol-7-yl)-1-hydroxy-2-methylpropan-2-yl)-N-(2-hydroxy-2-methylpropyl) piperidine-1-carboxamide]
0.0001 to 10 µM | 0.0001 to 10 µM | 0.0001 to 10 µM | 0.0001 to 10 µM | CC(C)(C1CCN(C(=O)NCCO)CC1)C(O)c1cc(Cl)cc2cn[nH]c12 (centres unmarked) [Compound P-0476, 4-(1-(5-chloro-1H-indazol-7-yl)-1-hydroxy-2-methylpropan-2-yl)-N-(2-hydroxyethyl) piperidine-1-carboxamide]
0.0001 to 10 µM | 0.0001 to 10 µM | 0.0001 to 10 µM | 0.0001 to 10 µM | CC(C)(C1CCN(C(=O)NCc2ccccn2)CC1)C(O)c1cc(Cl)cc2cn[nH]c12 (centres unmarked) [Compound P-0477, 4-(1-(5-chloro-1H-indazol-7-yl)-1-hydroxy-2-methylpropan-2-yl)-N-(pyridin-2-ylmethyl)piperidine-1-carboxamide]
0.0001 to 10 µM | 0.0001 to 10 µM | 0.0001 to 10 µM | 0.0001 to 10 µM | C[C@H](NC(=O)N1CCC(C(C)(C)C(O)c2cc(Cl)cc3cn[nH]c23)CC1)c1ccccn1 (stereo partly drawn) [Compound P-0478, 4-(1-(5-chloro-1H-indazol-7-yl)-1-hydroxy-2-methylpropan-2-yl)-N-((S)-1-(pyridin-2-yl)ethyl)piperidine-1-carboxamide]
0.0001 to 10 µM | 0.0001 to 10 µM | 0.0001 to 10 µM | 0.0001 to 10 µM | C[C@@H](NC(=O)N1CCC(C(C)(C)C(O)c2cc(Cl)cc3cn[nH]c23)CC1)c1ccccn1 (stereo partly drawn) [Compound P-0479, 4-(1-(5-chloro-1H-indazol-7-yl)-1-hydroxy-2-methylpropan-2-yl)-N-((R)-1-(pyridin-2-yl)ethyl)piperidine-1-carboxamide]
0.0001 to 10 µM | 0.0001 to 10 µM | 0.0001 to 10 µM | 0.0001 to 10 µM | O=C(CC1CCOCC1)N1CCC(C(F)(F)C(O)c2cc(Cl)cc3cn[nH]c23)CC1 (centres unmarked) [Compound P-0480, 1-(4-(2-(5-chloro-1H-indazol-7-yl)-1,1-difluoro-2-hydroxyethyl)piperidin-1-yl)-2-(tetrahydro-2H-pyran-4-yl)ethan-1-one]
> 10 µM | 0.0001 to 10 µM | 0.0001 to 10 µM | 0.0001 to 10 µM | O=C(CC1CCS(=O)(=O)CC1)N1CCC(C(F)(F)C(O)c2cc(Cl)cc3cn[nH]c23)CC1 (centres unmarked) [Compound P-0481, 1-(4-(2-(5-chloro-1H-indazol-7-yl)-1,1-difluoro-2-hydroxyethyl)piperidin-1-yl)-2-(1,1-dioxidotetrahydro-2H-thiopyran-4-yl)ethan-1-one]
0.0001 to 10 µM | 0.0001 to 10 µM | 0.0001 to 10 µM | 0.0001 to 10 µM | O=C(NCC1COC1)N1CCC(C(F)(F)C(O)c2cc(Cl)cc3cn[nH]c23)CC1 (centres unmarked) [Compound P-0482, 4-(2-(5-chloro-1H-indazol-7-yl)-1,1-difluoro-2-hydroxyethyl)-N-(oxetan-3-ylmethyl)piperidine-1-carboxamide]
0.0001 to 10 µM | 0.0001 to 10 µM | 0.0001 to 10 µM | 0.0001 to 10 µM | N#Cc1ccc(NC(=O)N2CCC(C(F)(F)C(O)c3cc(Cl)cc4cn[nH]c34)CC2)cc1 (centres unmarked) [Compound P-0483, 4-(2-(5-chloro-1H-indazol-7-yl)-1,1-difluoro-2-hydroxyethyl)-N-(4-cyanophenyl) piperidine-1-carboxamide]
